Data on 32 compounds can be found in ChEMBL document CHEMBL5052834, “CXCL10 Inhibitors” (2021).

Active and inactive are the calls of the source. The calls are words filed in the database; no cut-off is given here.

The test system of test [1] is Keratinocyte. The test can be described thus: Inhibition of CXCL10 gene expression in TNF-alpha-stimulated human keratinocytes. Format: functional, cell-based.
Test [2] deals with Keratinocyte. The test can be described thus: Inhibition of CXCL10 gene expression in LPS-stimulated human keratinocytes. Format: functional, cell-based.
The subject of test [3] is Keratinocyte. Description: Inhibition of CXCL10 gene expression in IFN-gamma-stimulated human keratinocytes. Format: functional, cell-based.
Test [4] has as its system Keratinocyte. The test can be described thus: Inhibition of CXCL10 protein secretion in LPS-stimulated human keratinocytes measured by ELISA assay. Format: functional, cell-based.
In test [5] the test system is Keratinocyte. The test can be described thus: Inhibition of CXCL10 protein secretion in IFN-gamma-stimulated human keratinocytes measured by ELISA assay. Format: functional, cell-based.
The test system of test [6] is Keratinocyte. The test can be described thus: Inhibition of CXCL10 protein secretion in poly (I:C)-stimulated human keratinocytes measured by ELISA assay. Format: functional, cell-based. Background: In an ELISA, binding on a coated surface is turned into a signal by an enzyme label.
The subject of test [7] is Keratinocyte. The test can be described thus: Inhibition of CXCL10 protein secretion in TNF-alpha-stimulated human keratinocytes measured by ELISA assay. Format: functional, cell-based.
For test [8], the system named is Keratinocyte. Description: Inhibition of CXCL10 gene expression in poly (I:C)-stimulated human keratinocytes. Format: functional, cell-based.
For test [9], the species on record is Rattus norvegicus. The test can be described thus: Inhibition of CXCL10 gene expression in streptozotocin (STZ)-induced diabetes induced retinopathy model of rat assessed as decrease in amount of CXCL10 in retina measured by ELISA assay. Format: functional.
The species named for test [10] is Rattus norvegicus. The test can be described thus: Antiangiogenic activity in streptozotocin (STZ)-induced diabetes induced retinopathy model of rat assessed as decrease in retinal vascular permeability measured by Evans blue dye metho. Format: functional, organism-based.
Test [11] deals with Mus musculus. The test can be described thus: In vivo inhibition of CXCL10 gene expression in experimental autoimmune uveitis (EAU) model of C57BL/6 mouse. Format: functional, organism-based.

Turning to `Cc1c(OCC(F)(F)F)ccnc1C[S+]([O-])c1nc2ccccc2[nH]1` (stereo not drawn), the inhibition result in test [1], in test [2], in [3] and in test [4] was “Active” throughout. With `COc1c(C)cnc(C[S@+]([O-])c2nc3cc(OC(F)F)ccc3[nH]2)c1C`, the inhibition result in test [2] was “Active”. For the compound `COc1ccnc(CS(=O)(=O)c2nc3cc(OC(F)F)ccc3[nH]2)c1OC`, in test [5], the inhibition entry is “Active”. Regarding `COc1c(C)cnc(CS(=O)(=O)c2nc3cc(OC(F)F)ccc3[nH]2)c1C`, the inhibition entry in [2] was “Active”. `COc1ccc2[nH]c(S(=O)(=O)Cc3nccc(OC)c3C)nc2c1`: the inhibition result in [3] was “Active”.

For `Cc1c(OCC(F)(F)F)ccnc1CS(=O)(=O)c1nc2cc(OC(F)F)ccc2[nH]1`, the inhibition entry in test [2] and in test [3] was “Active” in each case. Take `COc1ccnc(CC(O)c2nc3cc(OC(F)(F)F)ccc3[nH]2)c1C` (stereo not drawn): in test [1], the inhibition result is “Active”. Consider `Cc1c(OCC(F)(F)F)ccnc1CS(=O)(=O)c1nc2cc(-n3cccc3)ccc2[nH]1`, for which the inhibition entry in test [1] was “Active”.

Consider `COc1c(C)cnc(CC(O)c2nc3cc(-n4cccc4)ccc3[nH]2)c1C` (stereo not drawn), for which the inhibition result in test [3] was “Active”.

`Cc1c(OCC(F)(F)F)ccnc1CC(C)(O)c1nc2cc(OC(F)F)ccc2[nH]1` (stereo not drawn): the inhibition result in test [4] was “Active”.

Regarding `COc1c(C)cnc(CS(=O)(=O)c2nc3cc(-n4cccc4)ccc3[nH]2)c1C`, the inhibition result in test [6] was “Active”.

`COc1c(C)cnc(CC(O)c2nc3ccccc3[nH]2)c1C` (stereo not drawn): the inhibition entry in test [1] is “Active”.

Consider `COCCCOc1ccnc(CS(=O)(=O)c2nc3ccccc3[nH]2)c1C`, for which, in [5], the inhibition result is “Active”. For `COc1ccc2[nH]c([S@@+]([O-])Cc3nccc(OC)c3C)nc2c1`, the inhibition result in [7] and in test [3] was “Active” throughout. Regarding `COc1ccc2[nH]c([S@+]([O-])Cc3ncc(C)c(OC)c3C)nc2c1`, the inhibition result in [3] is “Active”.

For `COCCCOc1ccnc(C[S@+]([O-])c2nc3cc(OC(F)(F)F)ccc3[nH]2)c1C`, in test [4], the inhibition entry was “Active”. The same measure, in the same setting: to `COc1ccc2[nH]c(S(=O)(=O)Cc3ncc(C)c(OC)c3C)nc2c1` belongs “Active”. Take `COc1ccc2[nH]c(C(=O)Cc3ncc(C)c(OC)c3C)nc2c1`: in [8], the inhibition result was “Active”. For the compound `Cc1cnc(CC(=O)c2nc3ccccc3[nH]2)c(C)c1OCC(F)(F)F`, in test [6], the inhibition entry is “Active”. With `COc1ccnc(C[S+]([O-])c2nc3cc(OC(F)F)ccc3[nH]2)c1OC` (stereo not drawn), the inhibition result in test [9], in test [5], in test [1], in test [2] and in [8] was “Active” in each case. Besides, the result in test [10] was Active.

For the compound `COc1ccnc(C[S+]([O-])c2nc3cc(-n4cccc4)ccc3[nH]2)c1C` (stereo not drawn), the inhibition result in test [7] and in test [6] was “Active” in each case. Regarding `COCCCOc1ccnc(C[S+]([O-])c2nc3ccccc3[nH]2)c1C` (stereo not drawn), the inhibition entry in test [7], in test [6] and in test [2] was “Active” in each case. Consider `COc1c(C)cnc(C[S@@](=O)c2nc3ccccc3[nH]2)c1C`, for which the inhibition entry in [7] was “Active”.

With `COc1ccnc(CC(O)c2nc3cc(OC(F)(F)F)ccc3[nH]2)c1OC` (stereo not drawn), the inhibition entry in [7] is “Active”. For the compound `COc1ccc2[nH]c([S+]([O-])Cc3ncc(C)c(OC)c3C)nc2c1` (stereo not drawn), the inhibition entry in test [9], in test [5], in test [6], in test [1], in test [8] and in test [11] was “Active” throughout. The inhibition entry in test [4] was “Active”. Besides, the outcome in [10] was Active. For the compound `COc1ccnc(CS(=O)(=O)c2nc3ccccc3[nH]2)c1OC`, the inhibition entry in test [8] was “Active”. On to `COc1ccnc(CC(C)(O)c2nc3cc(-n4cccc4)ccc3[nH]2)c1OC` (stereo not drawn), for which the inhibition result in test [5] is “Active”. On to `COCCCOc1ccnc(CC(=O)c2nc3cc(OC(F)(F)F)ccc3[nH]2)c1C`, for which, in test [8], the inhibition result was “Active”. Take `COc1ccnc(CC(O)c2nc3ccccc3[nH]2)c1C` (stereo not drawn): the inhibition entry in [6] and in test [8] was “Active” in each case. Take `COc1c(C)cnc(C[S@@+]([O-])c2nc3cc(OC(F)F)ccc3[nH]2)c1C`: the inhibition result in test [4] was “Active”. `Cc1cnc(CC(O)c2nc3cc(OC(F)F)ccc3[nH]2)c(C)c1OCC(F)(F)F` (stereo not drawn): in test [5], the inhibition entry is “Active”. With `COc1ccnc(CC(C)(O)c2nc3cc(OC(F)(F)F)ccc3[nH]2)c1OC` (stereo not drawn), the inhibition entry in test [7] was “Active”.
